Assay results from patent publication US20230136702A1, “Inhibitors of Human Herpesviruses” (The Governors of the University of Alberta, priority 2020, published 2023).
Counter-ions that a name gives are not always drawn. Like-named read-outs stand apart in the source and are kept apart here.

Columns and labels:
[1] = target: T1, HCMV DNA polymerase (UL54) (Human cytomegalovirus, UniProt P08546); test: HCMV DNA polymerase enzyme inhibition assay (ProFoldin, fluorescence); assay type: biochemical; settings: 37° C., duplicate, max 40 μM
T1 construct: 6His (C); made in house; host or cells: Sf9 insect cells (baculovirus, pFastBac)
Method: The HCMV DNA polymerase assay was developed by ProFoldin. The assay detects the formation of DNA from the DNA polymerase reaction in the presence of a DNA template, dATP and dGTP. The formation of the DNA is detected by using a fluorescence method. The fluorescence intensity increases when DNA is generated by the enzyme reaction.
A time-course experiment was performed aside the enzyme inhibition assay to ensure the assay was sensitive to the enzyme inhibition. The wells for the time-course experiment contained 1 μL of DMSO and the same reaction mixture as that in the enzyme inhibition assay. The time-course data varied between plates. The reactions were stopped when the fluorescence reached a value of about 3700 for each plate.
Exemplary solid compounds (e.g., as described herein) were dissolved in DMSO to make […] stock solutions. PFA (phosphonoformic acid or phosphonomethanoic acid) was used as a positive control. The compound mother plates were prepared at 50× concentrated compound concentrations with a 2-fold serial dilution. All the exemplary compounds except PFA were diluted in DMSO. PFA was diluted in water. The maximum compound concentration was 2 mM that gave the final concentration of 40 μM in the assay. One microliter of the 50× stock solutions was transferred into the assay plates. Three copies of assay plates were prepared, two for HCMV DNA polymerase assay and one for compound background control.
The following is the protocol for enzyme inhibition performed at 37° C.:
1. Prepared a premix composed of 35347 μL of H2O, 5220 μL of 10× assay buffer and 149 μL of 350×HCMV DNA polymerase.
2. Added 39 μL of the premix into the wells with 1 μL of the compound. Incubated the mixture for at least 5 min.
3. Added 10 μL of 5×dNTP (0.1 mM), 5×DNA template solutions into each well and incubated the solution until the fluorescence value reached a value about 3700 for the DMSO-only control wells.
4. Added 50 μL of the 1× dye into the wells.
5. Read the fluorescence at emission wavelength of 535 nm and excitation wavelength of 485 nm.
For the compound background reading, added 99 μL of water in the wells with 1 μL of compounds and read the fluorescence. […] The 0% inhibition value F0 was from the wells with DMSO (no inhibitor).
The background values were subtracted from the fluorescence reading to get the net fluorescence values. The net fluorescence values were used for calculation of the percentage inhibition.
The assay was performed in duplicate for the test article at […], 1.25, 0.625, 0.313, 0.156 and 0.078 μM. The IC50 curves were obtained by fitting the percentage inhibition values with the compound concentrations using Prism GraphPad software.

[2] = tested on: HCMV US3-6-EGFP-HCMV-AD169 strain; test: In vitro inhibitory (antiviral) activity against HCMV, GFP reporter in MRC5 cells; assay type: cell-based, Human cytomegalovirus (HCMV); settings: Human betaherpesvirus 5, AD169, MRC5, 96 h, read-out: HCMV Antiviral EC50 range
Method: (§1) Exemplary compounds (e.g., as described herein) were prepared as 20 mM stock solutions with DMSO. Reference compound was ganciclovir (Sigma). Compounds were tested at 8 concentrations, 3-fold serial dilutions, in duplicate for EC50 and CC50 determinations. The highest testing concentrations of the exemplary compounds and reference compound were 40 μM and 100 μM, respectively. The final concentration of DMSO in the cell culture was 0.5%.
HCMV US3-6-EGFP-HCMV-AD169 strain was obtained from Institute Pasteur of Shanghai, CAS. The virus contains GFP as a reporter of the viral replication.
(§2) MRC5 cells (ATCC CCL-171) was obtained from the ATCC and maintained in the EMEM (Sigma) supplemented with 10% FBS (HyClone), 1% L-glutamine (Gibco), 1% NEAA (Gibco), and 1% PS (Hyclone). Reagent:
In 96-well plates, MRC5 cells were seeded at 20,000 cells per well and cultured at 37° C. and 5% C02 overnight. Next day, compounds (8 concentrations, 3-fold dilutions, in duplicate) and US3-6-EGFP-HCMV-AD169 (MOI=0.1) were added to the cells. The resulting cultures were incubated at 37° C. and 5% C02 for 4 days. Fluorescence intensity was determined by Acumen Cellista (TTP LabTech). The antiviral activity of each compound was calculated based on the inhibition of expression of GFP at each concentration normalized by the cell control (cells without virus infection or compound treatment).
(§3) Antiviral activity and cytotoxicity of the compounds were expressed as % Inhibition and % Viability, respectively, and calculated with the formulas below:
Inhibition (%)=100−(Raw dataCPD−AverageCC)/(AverageVC−AverageCC)*100
(§4) Raw dataCPD indicates the values of the compound-treated wells; AverageVC, AverageCC and AverageMC indicate the average values of the virus control (cells infected with virus, without compound treatment), cell control and medium control wells, respectively.
(§5) EC50 and CC50 values were calculated using the GraphPad Prism software.

[3] = Cytotoxicity in MRC5 cells without virus infection (CCK8); assay type: cell-based; settings: human
Method: as §1, §2
Cytotoxicity of the compounds was assessed under the same conditions, but without virus infection, in parallel. Cell viability was measured with CCK8 following the manufacturer's manual. CC50 values were then calculated based on cytotoxicity at the test concentrations normalized by the medium control (medium only).
as §3
Viability (%)=(Raw dataCPD−AverageMC)/(AverageCC−AverageMC)*100
as §4, §5

hERG potassium channel = target: T2, hERG potassium channel (Homo sapiens, UniProt Q12809); test: Inhibition of hERG potassium channel, automated patch clamp (SyncroPatch 384PE) in CHO cells; assay type: cell-based
T2 construct: host or cells: CHO cells stably expressing hERG
Method: This automated patch clamp method (SyncroPatch 384PE) CHO cells stably expressing hERG potassium channels from Sophion Biosciences were used for this test.
The cells were cultured in a humidified and air-controlled (5% C02) incubator at 37° C.
The CHO cells which were at least two days after plating and more than 75% confluent would be used for experiments. Before testing, cells were harvested using TrypLE and resuspended in the physiological solution at the room temperature.
For the electrophysiological recordings the following solutions were used (Table 5). The physiological solution and external solution were prepared at least one month. The intracellular solution was prepared in batches aliquoted, and stored at 4° C. until used.
Exemplary compounds (e.g., as described herein) were dissolved in 100% DMSO to obtain stock solutions for different test concentrations. Then the stock solutions were further diluted into external solution to achieve final concentrations for testing. Visual check for precipitation was conducted before testing. Final DMSO concentration in external solution was not more than 0.30% for the compounds.
From this holding potential of −80 mV, the voltage was first stepped to −50 mV for 80 ms for leak subtraction, and then stepped to +20 mV for 4800 ms to open hERG channels. After that, the voltage was stepped back down to −50 mV for 5000 ms, causing a “rebound” or tail current, which was measured and collected for data analysis. Finally, the voltage was stepped back to the holding potential (−80 mV, 1000 ms). This voltage command protocol was repeated every 20000 msec. This command protocol was performed continuously during the test (vehicle control and test compound).
hERG SyncroPatch assay was conducted at room temperature. The Setup, Prime Chip, Catch and Seal Cells, Amplifier Settings, Voltage and Application Protocols were established with Biomek Software (Nanion).
One addition of 40 μL of the vehicle was applied, followed by 300s for a baseline period. Then the doses of exemplary test compounds were added with 40 μL. The exposure of test compound at each concentration was no less than 300s. […] Five concentrations (0.494 μM, 1.48 μM, 4.44 μM, 13.33 μM and 40.00 μM) were tested for each compound. Minimum 2 replicates per concentration were obtained.
Within each well recording, percent of control values were calculated for each test compound concentration current response based on peak current in presence of reference control (current response/peak current)×100%. The Dose-Response curves were fit to the standard Hill equation as shown below:
Ipost cpd/Ipre cpd=Bottom+(Top−Bottom)/(1+10^((Log IC50−X)*HillSlope))
Where X is the logarithm of concentration, Ipost cpd/Ipre cpd is the normalized peak current amplitude, Top is 1 and Bottom is equal to 0.
Curve-fitting and IC50 calculations were performed by GraphPad Prism 5.0. If the inhibition obtained at the lowest concentration tested was over 50%, or at the highest concentration tested was less than 50%, we reported the IC50 as less than lowest concentration, or higher than highest concentration, respectively.

[4] = CHO cells stably expressing hERG, room temperature, 0.494-40.00 μM, read-out: CHO-hERG Activity Range

T1 sequence (P08546 whole entry): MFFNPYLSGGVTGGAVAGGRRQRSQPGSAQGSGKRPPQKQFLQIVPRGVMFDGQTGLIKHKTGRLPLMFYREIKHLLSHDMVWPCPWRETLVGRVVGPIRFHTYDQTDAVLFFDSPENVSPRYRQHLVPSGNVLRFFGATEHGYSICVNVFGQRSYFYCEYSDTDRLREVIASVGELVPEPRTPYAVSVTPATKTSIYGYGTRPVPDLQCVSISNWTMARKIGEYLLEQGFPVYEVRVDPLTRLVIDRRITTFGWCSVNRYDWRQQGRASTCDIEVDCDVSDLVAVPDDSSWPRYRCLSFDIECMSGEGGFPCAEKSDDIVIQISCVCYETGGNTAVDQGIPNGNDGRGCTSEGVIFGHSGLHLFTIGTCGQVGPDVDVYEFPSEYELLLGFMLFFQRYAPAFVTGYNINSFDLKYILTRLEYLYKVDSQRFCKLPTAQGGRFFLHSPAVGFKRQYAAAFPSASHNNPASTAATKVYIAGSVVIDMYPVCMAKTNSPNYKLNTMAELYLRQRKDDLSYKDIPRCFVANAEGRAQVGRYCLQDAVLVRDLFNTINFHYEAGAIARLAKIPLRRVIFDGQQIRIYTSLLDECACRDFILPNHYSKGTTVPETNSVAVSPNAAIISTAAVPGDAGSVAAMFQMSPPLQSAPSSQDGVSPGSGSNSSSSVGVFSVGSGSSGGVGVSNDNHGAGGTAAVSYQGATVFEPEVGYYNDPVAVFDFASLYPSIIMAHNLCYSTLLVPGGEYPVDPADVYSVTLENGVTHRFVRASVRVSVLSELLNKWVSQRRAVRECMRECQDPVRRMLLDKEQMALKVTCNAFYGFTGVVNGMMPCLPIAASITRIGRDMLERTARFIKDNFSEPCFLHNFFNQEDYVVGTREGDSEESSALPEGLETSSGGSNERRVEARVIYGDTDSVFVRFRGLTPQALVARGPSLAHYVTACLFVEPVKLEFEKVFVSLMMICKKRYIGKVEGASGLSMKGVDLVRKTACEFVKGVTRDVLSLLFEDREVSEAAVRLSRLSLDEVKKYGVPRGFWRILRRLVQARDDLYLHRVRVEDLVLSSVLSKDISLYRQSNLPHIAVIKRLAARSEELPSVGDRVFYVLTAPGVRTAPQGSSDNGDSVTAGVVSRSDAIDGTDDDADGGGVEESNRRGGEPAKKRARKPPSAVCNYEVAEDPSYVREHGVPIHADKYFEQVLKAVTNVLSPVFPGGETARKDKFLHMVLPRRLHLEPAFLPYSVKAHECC
T2 sequence (Q12809 whole entry): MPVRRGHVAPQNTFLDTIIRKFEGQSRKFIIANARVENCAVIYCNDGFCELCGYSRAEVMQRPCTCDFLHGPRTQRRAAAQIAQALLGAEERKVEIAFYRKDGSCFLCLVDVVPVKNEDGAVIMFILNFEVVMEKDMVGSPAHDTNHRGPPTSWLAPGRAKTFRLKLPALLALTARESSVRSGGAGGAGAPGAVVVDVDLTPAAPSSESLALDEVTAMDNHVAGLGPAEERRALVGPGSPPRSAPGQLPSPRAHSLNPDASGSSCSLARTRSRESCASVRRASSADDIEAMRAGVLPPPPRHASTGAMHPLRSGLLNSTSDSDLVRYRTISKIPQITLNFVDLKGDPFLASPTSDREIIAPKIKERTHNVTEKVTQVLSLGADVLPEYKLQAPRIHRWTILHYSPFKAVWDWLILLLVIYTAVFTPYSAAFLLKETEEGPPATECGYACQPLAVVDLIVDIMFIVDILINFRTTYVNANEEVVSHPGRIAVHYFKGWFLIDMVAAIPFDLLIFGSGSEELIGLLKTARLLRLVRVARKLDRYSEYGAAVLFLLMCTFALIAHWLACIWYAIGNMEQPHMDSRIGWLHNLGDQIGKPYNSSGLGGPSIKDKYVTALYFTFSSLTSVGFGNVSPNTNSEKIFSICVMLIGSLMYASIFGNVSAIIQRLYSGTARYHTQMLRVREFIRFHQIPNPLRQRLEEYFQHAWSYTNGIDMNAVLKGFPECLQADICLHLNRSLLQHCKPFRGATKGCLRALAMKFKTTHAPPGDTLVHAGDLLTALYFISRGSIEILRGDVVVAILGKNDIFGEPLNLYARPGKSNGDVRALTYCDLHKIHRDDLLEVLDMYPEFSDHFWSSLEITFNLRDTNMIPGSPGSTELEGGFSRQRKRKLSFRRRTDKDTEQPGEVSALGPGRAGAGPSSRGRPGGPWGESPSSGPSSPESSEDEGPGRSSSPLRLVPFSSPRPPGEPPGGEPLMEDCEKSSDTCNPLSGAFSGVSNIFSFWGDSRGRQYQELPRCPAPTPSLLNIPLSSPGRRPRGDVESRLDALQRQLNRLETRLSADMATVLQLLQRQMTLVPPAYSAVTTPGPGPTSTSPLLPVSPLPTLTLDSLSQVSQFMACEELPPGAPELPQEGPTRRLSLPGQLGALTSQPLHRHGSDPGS

| Compound | IC50 [1] [µM] | EC50 [2] [µM] | CC50 at 4 days [3] [µM] | IC50 (hERG potassium channel; [4]) [µM] | IC50 (hERG potassium channel) [µM] | CC50 at 4 days ([3]; MRC5 cells, 4 days, CCK8, highest concentration 40 μM, read-out: MCR5 CC50) [µM] |
| --- | --- | --- | --- | --- | --- | --- |
| CC1(F)CN(C(=O)Cn2c(=O)c(C(=O)NCc3ccc(Cl)cc3)cc3nc(N4CCN(CCNS(C)(=O)=O)C4=O)cnc32)C1 [Compound 16, N-[(4-chlorophenyl)methyl]-5-[2-(3-fluoro-3-methylazetidin-1-yl)-2-oxoethyl]-2-(3-{2-[(methanesulfonyl)amino]ethyl}-2-oxoimidazolidin-1-yl)-6-oxo-5,6-dihydropyrido[2,3-b]pyrazine-7-carboxamide] | < 1 | > 1 | > 40 | > 10 | – | – |
| CC(=O)NCCN1CCN(c2cnc3c(cc(C(=O)NCc4ccc(Cl)cc4)c(=O)n3CC(=O)N3CC(C)(F)C3)n2)C1=O [Compound 19] | < 1 | > 1 | > 40 | > 10 | – | – |
| CN(C)C(=O)CN1CCN(c2cnc3c(cc(C(=O)NCc4ccc(Cl)cc4)c(=O)n3CC(=O)N3CC(C)(F)C3)n2)C1=O [Compound 21] | < 1 | < 1 | > 40 | > 10 | – | – |
| CC(=O)N(C)CCN1CCN(c2cnc3c(cc(C(=O)NCc4ccc(Cl)cc4)c(=O)n3CC(=O)N3CC(C)(F)C3)n2)C1=O [Compound 22, 2-(3-{2-[acetyl(methyl)amino]ethyl}-2-oxoimidazolidin-1-yl)-N-[(4-chlorophenyl)methyl]-5-[2-(3-fluoro-3-methylazetidin-1-yl)-2-oxoethyl]-6-oxo-5,6-dihydropyrido[2,3-b]pyrazine-7-carboxamide] | < 1 | > 1 | > 40 | > 10 | – | – |
| CC1(F)CN(C(=O)Cn2c(=O)c(C(=O)NCc3ccc(Cl)cc3)cc3nc(N4CCN(CC(=O)NC#N)C4=O)cnc32)C1 [Compound 26, N-[(4-chlorophenyl)methyl]-2-{3-[2-(cyanoamino)-2-oxoethyl]-2-oxoimidazolidin-1-yl}-5-[2-(3-fluoro-3-methylazetidin-1-yl)-2-oxoethyl]-6-oxo-5,6-dihydropyrido[2,3-b]pyrazine-7-carboxamide] | < 1 | > 1 | > 40 | > 10 | – | – |
| CC1(F)CN(C(=O)Cn2c(=O)c(C(=O)NCc3ccc(Cl)cc3)cc3nc(N4CCN(Cc5nnn[nH]5)C4=O)cnc32)C1 [Compound 27, N-[(4-chlorophenyl)methyl]-5-[2-(3-fluoro-3-methylazetidin-1-yl)-2-oxoethyl]-6-oxo-2-{2-oxo-3-[(1H-tetrazol-5-yl)methyl]imidazolidin-1-yl}-5,6-dihydropyrido[2,3-b]pyrazine-7-carboxamide] | < 1 | > 1 | > 40 | > 10 | – | – |
| CC1(F)CN(C(=O)Cn2c(=O)c(C(=O)NCc3ccc(Cl)cc3)cc3nc(N4CCN(CC(=O)N5CCC5)C4=O)cnc32)C1 [Compound 28, 2-{3-[2-(azetidin-1-yl)-2-oxoethyl]-2-oxoimidazolidin-1-yl}-N-[(4-chlorophenyl)methyl]-5-[2-(3-fluoro-3-methylazetidin-1-yl)-2-oxoethyl]-6-oxo-5,6-dihydropyrido[2,3-b]pyrazine-7-carboxamide] | < 1 | < 1 | > 40 | > 10 | – | – |
| NCCN1CCN(c2cnc3c(cc(C(=O)NCc4ccc(Cl)cc4)c(=O)n3CC(=O)N3CC4(CC4)C3)n2)C1=O [Compound 36, 2-[3-(2-aminoethyl)-2-oxoimidazolidin-1-yl]-5-[2-(5-azaspiro[2.3]hexan-5-yl)-2-oxoethyl]-N-[(4-chlorophenyl)methyl]-6-oxo-5,6-dihydropyrido[2,3-b]pyrazine-7-carboxamide] | < 1 | < 1 | 18 | – | > 10 | – |
| CC(C)[C@H](N)C(=O)NCCN1CCN(c2cnc3c(cc(C(=O)NCc4ccc(Cl)cc4)c(=O)n3CC(=O)N3CC(C)(F)C3)n2)C1=O [Compound 37, N-[(4-chlorophenyl)methyl]-5-[2-(3-fluoro-3-methylazetidin-1-yl)-2-oxoethyl]-6-oxo-2-{2-oxo-3-[2-(L-valylamino)ethyl]imidazolidin-1-yl}-5,6-dihydropyrido[2,3-b]pyrazine-7-carboxamide-hydrochloride salt] | > 1 | < 1 | – | > 10 | – | > 40 |
